By IC50 is commonly meant the concentration that inhibits the measured activity by half. Read a low IC50 as inhibition by little substance.

A value given as a limit tells only on which side of the number the result lay.

For one test, the target named is T1, Full-length, GST-tagged, human CaMKIIδ (Homo sapiens, UniProt Q13557).
T1 construct: Full-Length, Glutathione-S-Transferase(GST)-Tagged, Human CaMKIIδ was purchased from Carna Biosciences; purchased Carna Biosciences 02-111
T1 sequence (Q13557 1-478 isoform Q13557-12): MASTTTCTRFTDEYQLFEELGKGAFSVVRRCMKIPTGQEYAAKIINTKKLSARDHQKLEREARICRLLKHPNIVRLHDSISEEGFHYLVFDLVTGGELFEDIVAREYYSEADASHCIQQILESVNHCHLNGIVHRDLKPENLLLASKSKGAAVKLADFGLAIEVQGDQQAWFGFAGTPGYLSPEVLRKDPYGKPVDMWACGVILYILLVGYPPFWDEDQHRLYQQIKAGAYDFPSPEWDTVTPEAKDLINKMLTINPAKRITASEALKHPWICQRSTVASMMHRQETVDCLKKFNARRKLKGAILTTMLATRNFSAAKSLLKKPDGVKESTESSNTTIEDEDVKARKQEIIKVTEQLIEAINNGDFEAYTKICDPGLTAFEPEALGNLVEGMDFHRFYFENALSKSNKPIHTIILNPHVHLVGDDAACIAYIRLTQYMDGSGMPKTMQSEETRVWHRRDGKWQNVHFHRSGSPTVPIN
In words: CaMKIIδ binding assay (TR-FRET with BODIPY-labeled probe ligand). Particulars: CaMKIIδ binding assay, results of Table 2. The essentials: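 TR-FRET probe-displacement binding: 0.5 nM GST-CaMKIIδ with 10 μg/mL calmodulin, 1 mM CaCl2, 0.21 nM Tb-anti-GST Ab and 300 nM BODIPY probe in HEPES pH 7.6 buffer. Eight-point 4-fold dilutions, 1 hr at room temperature. IC50 from logistic fit; 100% inhibition defined by 3 μM parent compound.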
`COc1cc2c(cc1Nc1ncc(-c3ccc(Cl)c(O[C@@H](C)Cn4cnnn4)c3)cn1)CCN(C(=O)CN1CCOCC1)C2` [Example 470, (S)-1-(6-((5-(3-((1-(1H-tetrazol-1-yl)propan-2-yl)oxy)-4-chlorophenyl)pyrimidin-2-yl)amino)-7-methoxy-3,4-dihydroisoquinolin-2(1H)-yl)-2-morpholinoethan-1-one] returned an IC50 of less than 10 nM. Take `COc1cc2c(cc1Nc1ncc(-c3ccc(C#N)c(O[C@@H](C)Cn4cnnn4)c3)cn1)C(=O)N(C1CCC1)C2` [Example 442, (S)-2-((1-(1H-tetrazol-1-yl)propan-2-yl)oxy)-4-(2-((2-cyclobutyl-6-methoxy-3-oxoisoindolin-5-yl)amino)pyrimidin-5-yl)benzonitrile]: the IC50 was 10 to 100 nM. With `COCC(=O)N1CCc2cc(OC)c(Nc3ncc(-c4ccc(Cl)c(O[C@@H](C)Cn5cnnn5)c4)cn3)cc2C1` [Example 500, (S)-1-(7-((5-(3-((1-(1H-tetrazol-1-yl)propan-2-yl)oxy)-4-chlorophenyl)pyrimidin-2-yl)amino)-6-methoxy-3,4-dihydroisoquinolin-2(1H)-yl)-2-methoxyethan-1-one], the concentration for half-maximal inhibition (IC50) is 10 to 100 nM.

Still in this test, the particulars now being: CaMKIIδ binding assay; activity class per Table 2.
Compound `CC(C)c1nn(C2CC3(C2)CN(C2COC2)C3)cc1Nc1ncc(-c2ccc(Cl)c(O[C@@H](C)Cn3cnnn3)c2)cn1` [Example 935, (S)-5-(3-((1-(1H-tetrazol-1-yl)propan-2-yl)oxy)-4-chlorophenyl)-N-(3-isopropyl-1-(2-(oxetan-3-yl)-2-azaspiro[3.3]heptan-6-yl)-1H-pyrazol-4-yl)pyrimidin-2-amine] returned an IC50 of less than 10 nM. The same measure, in the same setting: then `C[C@@H](Cn1cnnn1)Oc1cc(-c2cnc(Nc3cn(C[C@]4(O)CC[C@H](O)CC4)nc3OCC(F)(F)F)nc2)ccc1Cl` [Example 906, trans-1-((4-((5-(3-(((S)-1-(1H-tetrazol-1-yl)propan-2-yl)oxy)-4-chlorophenyl)pyrimidin-2-yl)amino)-3-(2,2,2-trifluoroethoxy)-1H-pyrazol-1-yl)methyl)cyclohexane-1,4-diol], with less than 10 nM; and `C[C@@H](Cn1cnnn1)Oc1cc(-c2cnc(Nc3cn([C@H]4C[C@H](N)C4)nc3OCC(F)(F)F)nc2)ccc1Cl` [Example 941, 5-(3-(((S)-1-(1H-tetrazol-1-yl)propan-2-yl)oxy)-4-chlorophenyl)-N-(1-(trans-3-aminocyclobutyl)-3-(2,2,2-trifluoroethoxy)-1H-pyrazol-4-yl)pyrimidin-2-amine], with less than 10 nM.

The test is the same for the next values; noted with them: Table 2; CaMKIIδ binding assay, activity given as class A/B/C.
`C[C@@H](Cn1cnnn1)Oc1cc(-c2cnc(Nc3cn(C4CCCC4)nc3C(F)(F)F)nc2)ccc1Cl` [Example 739, (S)-5-(3-((1-(1H-tetrazol-1-yl)propan-2-yl)oxy)-4-chlorophenyl)-N-(1-cyclopentyl-3-(trifluoromethyl)-1H-pyrazol-4-yl)pyrimidin-2-amine] registered an IC50 of 10 to 100 nM. The compound `C[C@@H](Cn1cnnn1)Oc1cc(-c2cnc(Nc3cn(CC(F)F)nc3C(F)(F)F)nc2)ccc1Cl` [Example 743, (S)-5-(3-((1-(1H-tetrazol-1-yl)propan-2-yl)oxy)-4-chlorophenyl)-N-(1-(2,2-difluoroethyl)-3-(trifluoromethyl)-1H-pyrazol-4-yl)pyrimidin-2-amine] came in with an IC50 of 10 to 100 nM. Regarding `C[C@@H](Cn1cnnn1)Oc1cc(-c2cnc(Nc3cc(C(C)(C)C)nn3C)nc2)ccc1Cl` [Example 740, (S)-5-(3-((1-(1H-tetrazol-1-yl)propan-2-yl)oxy)-4-chlorophenyl)-N-(3-(tert-butyl)-1-methyl-1H-pyrazol-5-yl)pyrimidin-2-amine], the IC50 was not below 100 nM. In turn, `C[C@@H](Cn1cnnn1)Oc1cc(-c2cnc(Nc3cn(CC4(O)CCC4)nc3C(F)(F)F)nc2)ccc1Cl` [Example 855, (S)-1-((4-((5-(3-((1-(1H-tetrazol-1-yl)propan-2-yl)oxy)-4-chlorophenyl)pyrimidin-2-yl)amino)-3-(trifluoromethyl)-1H-pyrazol-1-yl)methyl)cyclobutan-1-ol] displayed an IC50 of less than 10 nM. The compound `C[C@@H](Cn1cccn1)Oc1cc(-c2cnc(Nc3cn(C4CCN(C5CCOCC5)CC4)nc3OCC(F)(F)F)nc2)ccc1C#N` [Example 782, (S)-2-((1-(1H-pyrazol-1-yl)propan-2-yl)oxy)-4-(2-((1-(1-(tetrahydro-2H-pyran-4-yl)piperidin-4-yl)-3-(2,2,2-trifluoroethoxy)-1H-pyrazol-4-yl)amino)pyrimidin-5-yl)benzonitrile] registered a half-inhibitory concentration (IC50) of less than 10 nM. Regarding `C[C@@H](Cn1cnnn1)Oc1cc(-c2cnc(Nc3cn(Cc4nc5ccccc5c(=O)[nH]4)nc3C(F)(F)F)nc2)ccc1Cl` [Example 741, (S)-2-((4-((5-(3-((1-(1H-tetrazol-1-yl)propan-2-yl)oxy)-4-chlorophenyl)pyrimidin-2-yl)amino)-3-(trifluoromethyl)-1H-pyrazol-1-yl)methyl)quinazolin-4(3H)-one], the half-inhibitory concentration (IC50) lay within 10 to 100 nM. In the case of `C[C@@H](Cn1cnnn1)Oc1cc(-c2cnc(Nc3cn([C@H]4CC[C@@H](N5CCOCC5)CC4)nc3OCC(F)F)nc2)ccc1Cl` [Example 805, 5-(3-(((S)-1-(1H-tetrazol-1-yl)propan-2-yl)oxy)-4-chlorophenyl)-N-(3-(2,2-difluoroethoxy)-1-(cis-4-morpholinocyclohexyl)-1H-pyrazol-4-yl)pyrimidin-2-amine], the IC50 is less than 10 nM. The same measure, in the same setting: with `C[C@@H](Cn1cnnn1)Oc1cc(-c2cnc(Nc3cn([C@H]4CC[C@@H](N5CC(C)(O)C5)CC4)nc3C(F)(F)F)nc2)ccc1Cl` [Example 803, 1-(cis-4-(4-((5-(3-(((S)-1-(1H-tetrazol-1-yl)propan-2-yl)oxy)-4-chlorophenyl)pyrimidin-2-yl)amino)-3-(trifluoromethyl)-1H-pyrazol-1-yl)cyclohexyl)-3-methylazetidin-3-ol] the figure was less than 10 nM; with `COC[C@@H](C)n1cc(Nc2ncc(-c3ccc(Cl)c(O[C@@H](C)Cn4cnnn4)c3)cn2)c(OCC(F)(F)F)n1` [Example 796, 5-(3-(((S)-1-(1H-tetrazol-1-yl)propan-2-yl)oxy)-4-chlorophenyl)-N-(1-((R)-1-methoxypropan-2-yl)-3-(2,2,2-trifluoroethoxy)-1H-pyrazol-4-yl)pyrimidin-2-amine], less than 10 nM.

Staying with this test, now noted: Table 2; activity class for CaMKIIδ.
Compound `COc1nc(N2CCN(C3CCC(F)(F)CC3)CC2)ccc1Nc1ncc(-c2ccc(Cl)c(O[C@@H](C)Cn3cnnn3)c2)cn1` [Example 636, (S)-5-(3-((1-(1H-tetrazol-1-yl)propan-2-yl)oxy)-4-chlorophenyl)-N-(6-(4-(4,4-difluorocyclohexyl)piperazin-1-yl)-2-methoxypyridin-3-yl)pyrimidin-2-amine] displayed an IC50 of 10 to 100 nM. For the compound `C[C@@H](Cn1cnnn1)Oc1cc(-c2cnc(Nc3cn(C4Cc5ccccc5C4)nc3C(F)(F)F)nc2)ccc1Cl` [Example 724, (S)-5-(3-((1-(1H-tetrazol-1-yl)propan-2-yl)oxy)-4-chlorophenyl)-N-(1-(2,3-dihydro-1H-inden-2-yl)-3-(trifluoromethyl)-1H-pyrazol-4-yl)pyrimidin-2-amine], the IC50 was not below 100 nM.

`Cc1ncc(N2CC(N3CCOCC3)C2)cc1Nc1ncc(-c2ccc(Cl)c(O[C@@H](C)Cn3cnnn3)c2)cn1` [Example 605, (S)-5-(3-((1-(1H-tetrazol-1-yl)propan-2-yl)oxy)-4-chlorophenyl)-N-(2-methyl-5-(3-morpholinoazetidin-1-yl)pyridin-3-yl)pyrimidin-2-amine] yielded an IC50 of 10 to 100 nM.
